SMILES strings stand for the structures.

Results on 2 compounds are retold here after patent US20140073637A1, “AMINO-SUBSTITUTED-ALKYLOXY-BENZO[E]PYRIDO[4,3-B]INDOLE DERIVATIVES AS NEW POTENT KINASE INHIBITORS” (INSTITUT CURIE, priority 2011, published 2014).

Assay [1] addresses T1, NUAK1 (Homo sapiens, UniProt O60285).
T1 construct: Reaction biology Corp (USA), service
T1 sequence (O60285 1-661): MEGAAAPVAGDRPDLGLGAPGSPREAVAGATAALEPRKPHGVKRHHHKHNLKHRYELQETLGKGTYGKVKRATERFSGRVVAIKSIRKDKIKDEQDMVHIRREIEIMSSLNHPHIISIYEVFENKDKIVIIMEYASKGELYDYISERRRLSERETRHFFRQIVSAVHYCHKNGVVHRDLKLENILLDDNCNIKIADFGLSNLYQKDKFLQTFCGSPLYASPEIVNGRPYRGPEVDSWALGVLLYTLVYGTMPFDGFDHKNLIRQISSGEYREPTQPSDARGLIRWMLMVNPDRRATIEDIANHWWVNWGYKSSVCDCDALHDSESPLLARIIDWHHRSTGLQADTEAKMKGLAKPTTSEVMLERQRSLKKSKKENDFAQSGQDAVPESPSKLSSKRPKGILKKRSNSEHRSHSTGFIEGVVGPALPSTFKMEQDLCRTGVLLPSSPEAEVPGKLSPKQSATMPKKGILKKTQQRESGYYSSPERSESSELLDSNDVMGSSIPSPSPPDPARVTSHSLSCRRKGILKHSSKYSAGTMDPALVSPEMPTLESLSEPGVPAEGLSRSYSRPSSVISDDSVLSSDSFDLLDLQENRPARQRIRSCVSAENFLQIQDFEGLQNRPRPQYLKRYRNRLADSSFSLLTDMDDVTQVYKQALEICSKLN
Description: In vitro IC50 on recombinant kinase. It is filed as biochemical. As for the experimental part:
The efficiency of the 3-amino-ethoxy compounds to inhibit Nuak1 was determined in vitro.
The profiling was performed at the MRC (Dundee University), in duplicate, on a set of 121 kinases. The panel is representative of the major different classes of kinases. Compounds were used at the concentration of 1 μM. In vitro, IC50 were determined on recombinant kinases by Reaction biology Corp (USA).

The subject of a further assay is VEGFR. Description: Kinase profiling in vitro at 1 μM. Conditions: 1 microMolar in vitro. It counts as biochemical. As for the experimental part: (§1) The specificity of C14 was tested, in vitro, against 121 kinases representative of the kinome. Assays run in duplicate, at the concentration of 1 μM, were performed by MRC (Dundee, UK). Results are represented in FIG. 1. The main targets are highlighted in FIG. 1B. The profiling was performed at the MRC (Dundee University), in duplicate, on a set of 121 kinases. The panel is representative of the major different classes of kinases. Compounds were used at the concentration of 1 μM. In vitro, IC50 were determined on recombinant kinases by Reaction biology Corp (USA).

Assay [2] concerns the target T1, NUAK1. Description: Kinase profiling in vitro at 1 μM. It is filed as biochemical. The following applies: 1 microMolar in vitro, read-out: Percent of remaining activity. As for the experimental part: as §1
The target in a further assay is CAMKKb (Homo sapiens, UniProt Q96RR4). Briefly: Kinase profiling in vitro at 1 μM. It counts as biochemical. Conditions: 1 microMolar in vitro, read-out: Percent of remaining activity. As to the method: as §1
Chain of CAMKKb (Q96RR4 whole entry, species assumed): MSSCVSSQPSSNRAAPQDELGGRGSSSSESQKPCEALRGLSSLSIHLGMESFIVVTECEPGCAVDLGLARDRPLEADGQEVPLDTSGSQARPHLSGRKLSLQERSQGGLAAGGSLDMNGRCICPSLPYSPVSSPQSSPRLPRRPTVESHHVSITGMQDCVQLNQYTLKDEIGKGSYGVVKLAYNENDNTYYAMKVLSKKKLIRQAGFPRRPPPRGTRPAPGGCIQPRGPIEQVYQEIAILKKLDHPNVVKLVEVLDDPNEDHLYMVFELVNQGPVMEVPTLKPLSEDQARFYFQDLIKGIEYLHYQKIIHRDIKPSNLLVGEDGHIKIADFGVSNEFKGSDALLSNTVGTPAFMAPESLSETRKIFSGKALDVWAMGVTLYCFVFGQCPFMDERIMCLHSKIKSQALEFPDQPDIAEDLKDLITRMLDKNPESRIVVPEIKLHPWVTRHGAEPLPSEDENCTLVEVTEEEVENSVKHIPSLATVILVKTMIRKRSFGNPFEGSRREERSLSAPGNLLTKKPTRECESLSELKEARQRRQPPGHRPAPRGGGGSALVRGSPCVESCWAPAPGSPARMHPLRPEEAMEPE
A further assay concerns the target Jak2 (Homo sapiens, UniProt O60674). Description: Kinase profiling in vitro at 1 μM. The following applies: 1 microMolar in vitro, read-out: Percent of remaining activity. It is filed as biochemical. As to the method: as §1
A further assay deals with Gck (Homo sapiens, UniProt Q12851). Briefly: Kinase profiling in vitro at 1 μM. It counts as biochemical. Conditions: 1 microMolar in vitro, read-out: Percent of remaining activity. As for the experimental part:
as §1

For another assay, the target named is IRAK4 (Homo sapiens, UniProt Q9NWZ3). Description: Kinase profiling in vitro at 1 μM. It is filed as biochemical. Conditions: 1 microMolar in vitro, read-out: Percent of remaining activity. As to the method:
as §1

In another assay the target is STK33 (Homo sapiens, UniProt Q9BYT3). Description: Kinase profiling in vitro at 1 μM. It is filed as biochemical. The following applies: 1 microMolar in vitro, read-out: Percent of remaining activity. As for the experimental part: as §1
Chain of STK33 (Q9BYT3 whole entry, species assumed): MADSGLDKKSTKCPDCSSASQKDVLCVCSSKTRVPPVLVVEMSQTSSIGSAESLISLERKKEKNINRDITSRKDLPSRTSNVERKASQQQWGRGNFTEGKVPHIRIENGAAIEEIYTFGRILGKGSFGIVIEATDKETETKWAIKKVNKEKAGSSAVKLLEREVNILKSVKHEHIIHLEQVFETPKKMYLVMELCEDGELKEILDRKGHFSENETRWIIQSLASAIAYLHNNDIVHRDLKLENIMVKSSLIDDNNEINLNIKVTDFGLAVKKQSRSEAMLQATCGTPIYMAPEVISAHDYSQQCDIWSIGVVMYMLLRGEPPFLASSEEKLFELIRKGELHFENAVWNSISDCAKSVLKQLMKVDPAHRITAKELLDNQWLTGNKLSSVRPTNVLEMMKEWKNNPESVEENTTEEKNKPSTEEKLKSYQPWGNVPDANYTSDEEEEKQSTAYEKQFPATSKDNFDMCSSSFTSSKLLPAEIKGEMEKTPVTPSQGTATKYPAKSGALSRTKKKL
In another assay the target is Brsk1 (Homo sapiens, UniProt Q8TDC3). Briefly: Kinase profiling in vitro at 1 μM. It counts as biochemical. Conditions: 1 microMolar in vitro, read-out: Percent of remaining activity. As to the method: as §1
Chain of Brsk1 (Q8TDC3 whole entry, species assumed): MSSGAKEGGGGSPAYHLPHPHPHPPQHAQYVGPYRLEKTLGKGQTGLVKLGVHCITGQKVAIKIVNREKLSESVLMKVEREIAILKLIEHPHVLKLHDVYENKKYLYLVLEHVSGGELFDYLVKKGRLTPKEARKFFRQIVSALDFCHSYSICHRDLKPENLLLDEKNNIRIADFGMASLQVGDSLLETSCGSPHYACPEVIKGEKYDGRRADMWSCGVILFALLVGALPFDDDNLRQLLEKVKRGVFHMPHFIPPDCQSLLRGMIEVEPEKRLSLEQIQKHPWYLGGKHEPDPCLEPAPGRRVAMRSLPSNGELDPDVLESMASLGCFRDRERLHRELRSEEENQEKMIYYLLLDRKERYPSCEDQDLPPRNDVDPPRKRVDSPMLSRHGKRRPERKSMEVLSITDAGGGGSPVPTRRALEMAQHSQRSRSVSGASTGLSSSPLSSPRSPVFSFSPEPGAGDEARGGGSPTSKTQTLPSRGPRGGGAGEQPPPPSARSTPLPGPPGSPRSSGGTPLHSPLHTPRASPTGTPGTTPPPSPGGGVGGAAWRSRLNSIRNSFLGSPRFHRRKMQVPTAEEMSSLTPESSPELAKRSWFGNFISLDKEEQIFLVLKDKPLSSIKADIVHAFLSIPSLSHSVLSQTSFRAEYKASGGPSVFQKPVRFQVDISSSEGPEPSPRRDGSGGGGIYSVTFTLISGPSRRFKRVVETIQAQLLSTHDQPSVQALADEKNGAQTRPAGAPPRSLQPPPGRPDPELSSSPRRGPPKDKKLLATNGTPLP
For another assay, the system named is Phk. Description: Kinase profiling in vitro at 1 μM. It counts as biochemical. Conditions: 1 microMolar in vitro. As for the experimental part: as §1
For another assay, the target named is MELK (Homo sapiens, UniProt Q14680). Description: Kinase profiling in vitro at 1 μM. It is filed as biochemical. The following applies: 1 microMolar in vitro, read-out: Percent of remaining activity. As to the method:
as §1

For the next assay, the system named is H358 spheroids. Description: Multicellular tumour spheroid (MTS) growth. It is filed as cell-based. As to the method: H358 cells were cultured in 3-Dimensions. At day 1, the compound was added at the concentration of 0.6 μM. The spheroid growth was measured each day and expressed as a growth ratio (Vd−Vo/Vo); d for day and o for the starting day. The evolution of the volume of the spheroids is expressed in function of the time (in days). Spheroids grown in the presence of C1 are indicated by triangles whereas rectangles indicate spheroids treated by C14; control spheroids are visualized by diamonds.
In order to get some insight in C14 effects towards organized cells, the inventors have followed H358 spheroid expansion (FIG. 9). Organized 3-dimension spheroids were treated by either C14 (0.5 μM) or C1 (0.5 μM) or DMSO (control). […] C14 was thus found efficient to prevent cell growth even when cells mimicked tissue organization.
The inventors applied the hanging-drop method to produce H358 spheroids of similar diameters. 1400 cells were suspended on the lid of an agar coated 24-petri dishes containing culture medium. 48 h later, the spheroids were transferred to the culture medium. Spheroid volumes were measured before (Day 0) and during the drug treatment (Day N). H358 spheroids were treated by compounds at the concentration of 0.6 μM. Control H358 spheroids were grown under the same conditions without drug treatment. The size of each spheroid was determined by measuring 2 diameters (d1 and d2) using an inverted microscope. The volume was calculated according to the formula: V=4/3π^3 where r=½√d1xd2. Spheroid growth was calculated by measuring the variations in volume and compared to the initial volume V0. The growth ratio was defined as (Vd−Vo)/Vo. Data are the mean of at least three determinations on different spheroids.

In assay [3] the target is T1, NUAK1. Briefly: Nuak1 inhibition in cellulo: LATS1 stabilization by western blot. It is filed as cell-based. Conditions: HeLa cells treated ON; whole cell extracts, WB, compared to control. As for the experimental part: HeLa cells were treated ON by C21 (also named CH21) and C14M and compared to the control (C0). Whole cell extracts were analyzed by WB with anti LATS1 monoclonal antibody and the loading was quantified through the tubulin signal.
Therefore the possibility of inhibiting Nuakl, in cellulo, was evaluated through the stabilization of the Large Antigen Tumour Suppressor LATS1.
Cells were treated by compounds, harvested and lyzed in 9M urea then supplemented with Laemmli sample buffer. Cell extracts were subjected to SDS-PAGE and transferred to nitrocellulose filter (GE Healthcare). After blocking with 5% non-fat milk in PBS for at least 1 hour, the membranes were incubated with the primary antibodies. The following antibodies were used: phospho-Histone H3 Ser10 (1:2000, Upstate Biotechnology), anti LAST1 (Cell signalling), anti Aurora B (epitomics) and anti alpha-tubulin (Sigma) Anti-rabbit horseradish peroxidase (1:5000, GE Healthcare) was used as secondary antibodies. Bands were visualized by ECL technique (Amersham Bioscience).

Chain of Jak2 (O60674 whole entry, species assumed): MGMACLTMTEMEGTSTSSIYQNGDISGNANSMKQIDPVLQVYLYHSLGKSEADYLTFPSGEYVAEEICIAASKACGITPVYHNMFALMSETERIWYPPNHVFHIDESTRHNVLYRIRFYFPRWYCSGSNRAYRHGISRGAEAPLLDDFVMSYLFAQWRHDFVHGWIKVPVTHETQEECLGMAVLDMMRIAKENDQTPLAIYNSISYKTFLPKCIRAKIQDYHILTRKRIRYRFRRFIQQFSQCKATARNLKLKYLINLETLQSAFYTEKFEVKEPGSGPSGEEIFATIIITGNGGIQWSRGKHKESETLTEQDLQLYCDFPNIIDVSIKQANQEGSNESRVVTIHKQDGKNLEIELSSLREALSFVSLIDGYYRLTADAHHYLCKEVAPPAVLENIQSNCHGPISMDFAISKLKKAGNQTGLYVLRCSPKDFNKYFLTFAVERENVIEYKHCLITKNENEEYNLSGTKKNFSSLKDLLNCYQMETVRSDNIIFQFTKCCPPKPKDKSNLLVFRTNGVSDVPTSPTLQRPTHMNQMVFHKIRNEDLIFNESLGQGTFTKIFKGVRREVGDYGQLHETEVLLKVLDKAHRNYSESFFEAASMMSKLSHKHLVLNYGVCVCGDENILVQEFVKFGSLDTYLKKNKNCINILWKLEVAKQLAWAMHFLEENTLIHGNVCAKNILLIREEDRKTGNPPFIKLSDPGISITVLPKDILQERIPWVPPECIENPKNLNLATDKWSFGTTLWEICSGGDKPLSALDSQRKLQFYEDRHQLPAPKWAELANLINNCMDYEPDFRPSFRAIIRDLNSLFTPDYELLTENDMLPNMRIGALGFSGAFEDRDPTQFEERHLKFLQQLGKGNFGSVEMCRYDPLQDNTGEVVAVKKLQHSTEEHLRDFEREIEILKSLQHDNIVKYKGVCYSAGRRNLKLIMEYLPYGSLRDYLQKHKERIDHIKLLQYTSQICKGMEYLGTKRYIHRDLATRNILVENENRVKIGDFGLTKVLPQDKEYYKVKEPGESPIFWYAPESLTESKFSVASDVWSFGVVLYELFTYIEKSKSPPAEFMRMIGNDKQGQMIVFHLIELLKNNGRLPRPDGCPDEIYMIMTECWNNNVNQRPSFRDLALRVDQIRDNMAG
Chain of IRAK4 (Q9NWZ3 whole entry, species assumed): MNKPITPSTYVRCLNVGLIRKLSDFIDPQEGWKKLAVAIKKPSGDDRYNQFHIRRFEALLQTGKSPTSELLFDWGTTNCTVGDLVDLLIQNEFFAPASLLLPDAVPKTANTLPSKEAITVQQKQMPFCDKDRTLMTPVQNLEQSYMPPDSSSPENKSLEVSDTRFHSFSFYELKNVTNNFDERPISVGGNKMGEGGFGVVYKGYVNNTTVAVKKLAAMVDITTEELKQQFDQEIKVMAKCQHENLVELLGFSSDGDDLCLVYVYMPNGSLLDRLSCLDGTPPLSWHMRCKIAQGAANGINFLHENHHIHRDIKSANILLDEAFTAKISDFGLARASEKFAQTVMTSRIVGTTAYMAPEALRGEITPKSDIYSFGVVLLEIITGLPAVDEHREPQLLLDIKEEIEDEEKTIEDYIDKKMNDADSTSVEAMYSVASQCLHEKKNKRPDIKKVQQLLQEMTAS
Chain of Gck (Q12851 whole entry): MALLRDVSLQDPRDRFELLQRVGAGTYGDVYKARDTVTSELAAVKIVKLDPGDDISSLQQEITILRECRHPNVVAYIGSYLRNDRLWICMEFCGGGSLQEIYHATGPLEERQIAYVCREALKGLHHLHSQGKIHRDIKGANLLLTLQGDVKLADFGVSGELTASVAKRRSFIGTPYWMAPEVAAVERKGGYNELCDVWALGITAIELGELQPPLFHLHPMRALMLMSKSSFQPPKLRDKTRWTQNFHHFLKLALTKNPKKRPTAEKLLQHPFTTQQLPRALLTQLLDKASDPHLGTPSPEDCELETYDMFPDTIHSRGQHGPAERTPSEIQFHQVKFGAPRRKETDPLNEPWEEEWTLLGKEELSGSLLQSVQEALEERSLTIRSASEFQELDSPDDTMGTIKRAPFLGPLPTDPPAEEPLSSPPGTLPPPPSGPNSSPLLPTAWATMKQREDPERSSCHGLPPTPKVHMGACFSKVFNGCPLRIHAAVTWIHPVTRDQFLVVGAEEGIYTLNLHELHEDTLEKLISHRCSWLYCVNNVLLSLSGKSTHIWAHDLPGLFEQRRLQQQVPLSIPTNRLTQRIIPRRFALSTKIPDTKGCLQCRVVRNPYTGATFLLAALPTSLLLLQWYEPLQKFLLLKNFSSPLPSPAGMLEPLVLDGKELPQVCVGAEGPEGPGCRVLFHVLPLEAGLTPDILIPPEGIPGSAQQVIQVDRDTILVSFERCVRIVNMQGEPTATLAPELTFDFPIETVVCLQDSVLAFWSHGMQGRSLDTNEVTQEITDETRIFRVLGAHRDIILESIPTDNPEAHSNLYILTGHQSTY
Chain of MELK (Q14680 whole entry, species assumed): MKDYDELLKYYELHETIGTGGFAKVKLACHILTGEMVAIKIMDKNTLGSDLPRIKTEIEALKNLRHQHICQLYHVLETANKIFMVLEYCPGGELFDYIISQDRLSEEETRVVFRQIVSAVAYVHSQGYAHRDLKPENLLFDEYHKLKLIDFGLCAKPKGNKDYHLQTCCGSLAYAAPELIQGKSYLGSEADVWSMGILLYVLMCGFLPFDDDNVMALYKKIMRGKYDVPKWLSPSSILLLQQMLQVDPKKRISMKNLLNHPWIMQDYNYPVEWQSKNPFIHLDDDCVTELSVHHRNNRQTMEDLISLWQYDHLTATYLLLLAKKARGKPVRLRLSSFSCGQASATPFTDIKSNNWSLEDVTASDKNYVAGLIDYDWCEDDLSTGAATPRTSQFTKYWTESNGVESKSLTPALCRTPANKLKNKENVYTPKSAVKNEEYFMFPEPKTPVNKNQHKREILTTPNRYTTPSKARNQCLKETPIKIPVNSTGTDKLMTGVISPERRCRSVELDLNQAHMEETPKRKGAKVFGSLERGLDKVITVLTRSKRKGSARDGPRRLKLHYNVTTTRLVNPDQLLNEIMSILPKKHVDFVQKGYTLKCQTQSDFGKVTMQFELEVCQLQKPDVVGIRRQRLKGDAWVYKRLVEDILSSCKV

With `Cc1c[nH]c(=O)c2c1[nH]c1ccc3cc(OCCN(C)C)ccc3c12` [Compound C14, 3-(2-N,N-Dimethylaminoethoxy)-8-methyl-7H,10H-benzo[e]pyrido(4,3-b)indol-11-one], the IC50 (in general, the concentration needed to halve the response being measured) on NUAK1 [1] worked out at 1.4 nM. In addition, the results for the “Percent of remaining activity” value with VEGFR and in the assay on Phk were 16% and 10%, respectively. Moreover, the remaining activity (in general, the share of the control activity or signal that is left under treatment) at 1 µM at NUAK1 [2] was 4%; on CAMKKb, 22%; on Jak2, 21%; on Gck, 11%; at IRAK4 it was 25%; at STK33, 31%. Besides, the remaining activity at 1 µM is 22% at Brsk1 and 31% on MELK. The “duration of effect on spheroid growth” value with H358 spheroids (0.5 μM, 0.6 μM) is listed as “at least 5 days”. In addition, the “effect on 3D-H358 cell (spheroid) growth (in words)” value in the assay with H358 spheroids (0.5 μM, 0.6 μM) is reported as “affected significantly”. Also, the “spheroid size at day 10 (in words)” value with H358 spheroids (day 10, compared with C1-treated spheroids) is given as “smaller than their counterparts treated by C1”.

Consider `Cc1cncc2c1[nH]c1ccc3cc(OCCN(C)C)ccc3c12` [CH21, 3-(2-N,N-dimethylaminoethyloxy)-8-methyl-7H-benzo[e]pyrido(4,3-b)indole], for which the “LATS1 protein level (in words)” value at NUAK1 [3] is reported as “large increase”.
